Assay results published in patent publication US7595401B2, “Therapeutic compounds and their use in cancer” (Myriad Pharmaceuticals, Inc., priority 2006, dated 2009).

The compounds below were run on purified human Hsp90 (assay: Binding Assay: fluorescence polarization with BODIPY-labeled geldanamycin). Conditions: 5 μM compound, BODIPY-GM 10 nM, Hsp90 30 nM.
Outline: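 Compounds in 2% DMSO final compete with 10 nM BODIPY-GM for 30 nM purified human Hsp90, incubated overnight at room temperature in pH 7.3 HEPES buffer containing Na2MoO4 and DTT. Polarization (mP, ex/em 485/530) normalized to DMSO gives percent inhibition; autofluorescence-confounded data excluded.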

% Inhibition at 5 μM Compound Concentration [%] | SMILES
8.0 | COc1ccc(CCn2cnc(N)c3nc(Sc4cc5c(cc4Br)OCO5)nc2-3)cc1OC [Example 297, 8-[(6-Bromo-1,3-benzodioxol-5-yl)thio]-3-[2-(3,4-dimethoxyphenyl)ethyl]-3H-purin-6-amine]
0 | COc1ccc(OC)c(Sc2nc3c(N)ncn(CCc4ccc(F)cc4Cl)c-3n2)c1 [Example 140, 3-[2-(2-chloro-4-fluoro-phenyl)-ethyl]-8-(2,5-dimethoxy-phenylsulfanyl)-3H-purin-6-ylamine]
35 | Nc1ncn(CCc2ccccc2F)c2nc(Sc3cc4c(cc3Br)OCO4)nc1-2 [Example 148, 8-(6-bromo-benzo[1,3]dioxol-5-ylsulfanyl)-3-[2-(2-fluoro-phenyl)-ethyl]-3H-purin-6-ylamine]
0.0 | COc1ccc(I)c(Sc2nc3c(N)ncn(CCc4ccc(I)cc4)c-3n2)c1 [Example 311, 8-[(2-Iodo-5-methoxyphenyl)thio]-3-[2-(4-iodophenyl)ethyl]-3H-purin-6-amine]
8 | CC1(C)CC(CCn2cnc(N)c3nc(Sc4cc5c(cc4Br)OCO5)nc2-3)CC(C)(C)N1 [Example 351, 8-[(6-Bromo-1,3-benzodioxol-5-yl)thio]-3-[2-(2,2,6,6-tetramethylpiperidin-4-yl)ethyl]-3H-purin-6-amine]
8 | Nc1ncn(CCc2ccccc2)c2nc(Sc3ccc4c(c3)OCO4)nc1-2 [Example 5, 8-(benzo[1,3]dioxol-5-ylsulfanyl)-3-phenethyl-3H-purin-6-ylamine]
6 | COc1ccc(OC)c(Sc2nc3c(N)ncn(CCc4cc(OC)c(OC)c(OC)c4)c-3n2)c1 [Example 90, 8-(2,5-Dimethoxy-phenylsulfanyl)-3-[2-(3,4,5-trimethoxy-phenyl)-ethyl]-3H-purin-6-ylamine]
0 | COc1ccc(OC)c(Sc2nc3c(N)ncn(CCc4cc(C)ccc4C)c-3n2)c1 [Example 116, 8-(2,5-dimethoxy-phenylsulfanyl)-3-[2-(2,5-dimethyl-phenyl)-ethyl]-3H-purin-6-ylamine]
15.00 | CC(C)(C)OC(=O)N1CCCC(Cn2cnc(N)c3nc(Sc4cc5c(cc4Br)OCO5)nc2-3)C1 (centres unmarked) [Example 642, tert-Butyl 3-({6-amino-8-[(6-bromo-1,3-benzodioxol-5-yl)thio]-3 H-purin-3-yl}methyl)piperidine-1-carboxylate]
0 | Nc1ncn(CCc2cccc3ccccc23)c2nc(Sc3cc4c(cc3Br)OCO4)nc1-2 [Example 158, 8-(6-bromo-benzo[1,3]dioxol-5-ylsulfanyl)-3-(2-naphthalen-1-yl-ethyl)-3H-purin-6-ylamine]
60 | CCNC(=O)N1CCCC(CCn2cnc(N)c3nc(Sc4cc5c(cc4Br)OCO5)nc2-3)C1 (centres unmarked) [Example 440, 3-(2-{6-Amino-8-[(6-bromo-1,3-benzodioxol-5-yl)thio]-3H-purin-3-yl}ethyl)-N-ethylpiperidine-1-carboxamide]

Same assay, conditions: BODIPY-GM 10 nM, Hsp90 30 nM

IC50 [nM] | SMILES
> 25000 | CC(C)(C)OC(=O)N1CCCCC1CCCn1c(Sc2cc3c(cc2Br)OCO3)nc2c(N)ncnc21 (centres unmarked) [Example 638, tert-Butyl 2-(3-{6-amino-8-[(6-bromo-1,3-benzodioxol-5-yl)thio]-9 H-purin-9-yl}propyl)piperidine-1-carboxylate]
40 | C[C@@H](N)C(=O)N1CCCC(CCn2c(Sc3cc4c(cc3Br)OCO4)nc3c(N)ncnc32)C1 (stereo partly drawn) [Example 743, 9-(2-{1-[(2R)-2-Aminopropanoyl]piperidin-3-yl}ethyl)-8-[(6-bromo-1,3-benzodioxol-5-yl)thio]-9H-purin-6-amine]
140 | Nc1ncnc2c1nc(Sc1cc3c(cc1Br)OCO3)n2CC[C@@H]1CCCNC1 [Example 474, 8-[(6-Bromo-1,3-benzodioxol-5-yl)thio]-9-{2-[(3S)-piperidin-3-yl]ethyl}-9 H-purin-6-amine]
7000 | COc1ccc([N+](=O)[O-])cc1Sc1nc2c(N)ncnc2n1CCc1ccccc1Cl [Example 318, 9-[2-(2-Chlorophenyl)ethyl]-8-[(2-methoxy-5-nitrophenyl)thio]-9H-purin-6-amine]
170 | CC(=O)N1CCC(CCn2c(Sc3cc4c(cc3C#N)OCO4)nc3c(N)ncnc32)CC1 [Example 620, 6-({9-[2-(1-Acetylpiperidin-4-yl)ethyl]-6-amino-9 H-purin-8-yl}thio)-1,3-benzodioxole-5-carbonitrile]
80 | Nc1ncnc2c1nc(Sc1cc3c(cc1Br)OCO3)n2CCC(N)C1CC1 (centres unmarked) [Example 687, 9-(3-Amino-3-cyclopropylpropyl)-8-[(6-bromo-1,3-benzodioxol-5-yl)thio]-9H-purin-6-amine]
325 | CC(C)(C)OC(=O)N1CCCC(CCn2c(Sc3cc4c(cc3Br)OCO4)nc3c(N)ncnc32)C1 (centres unmarked) [Example 346, tert-Butyl 3-(2-{6-amino-8-[(6-bromo-1,3-benzodioxol-5-yl)thio]-9H-purin-9-yl}ethyl)piperidine-1-carboxylate]
5500 | Nc1ncnc2c1nc(Sc1cc3c(cc1Br)OCO3)n2CCn1cnc2ccccc2c1=O [Example 269, 3-(2-{6-Amino-8-[(6-bromo-1,3-benzodioxol-5-yl)thio]-9H-purin-9-yl}ethyl)quinazolin-4(3 H)-one]
280 | COc1ccc(OC)c(Sc2nc3c(N)ncnc3n2CCC2CCCNC2)c1 (centres unmarked) [Example 470, 8-[(2,5-Dimethoxyphenyl)thio]-9-(2-piperidin-3-ylethyl)-9 H-purin-6-amine]
88 | CCn1nnnc1N1CCC(CCn2c(Sc3cc4c(cc3Br)OCO4)nc3c(N)ncnc32)CC1 [Example 610, 8-[(6-Bromo-1,3-benzodioxol-5-yl)thio]-9-{2-[1-(1-ethyl-1 H-tetrazol-5-yl)piperidin-4-yl]ethyl}-9 H-purin-6-amine]
50 | Nc1ncnc2c1nc(Sc1cc3c(cc1Br)OCO3)n2CC[C@H]1CC[C@@H](N)CC1 [Example 481, 9-[2-(cis-4-Aminocyclohexyl)ethyl] 8-[(6-bromo-1,3-benzodioxol-5-yl)thio]-9 H-purin-6-amine]
500 | Nc1ncnc2c1nc(Sc1cc3c(cc1Br)OCO3)n2CCc1c(F)c(F)c(F)c(F)c1F [Example 41, 8-(6-Bromo-benzo[1,3]dioxol-5-ylsulfanyl)-9-(2-pentafluorophenyl-ethyl)-9H-purin-6-ylamine]
950 | COc1ccc(OC)c(Sc2nc3c(N)ncnc3n2CCC(NS(C)(=O)=O)C2CC2)c1 (centres unmarked) [Example 676, N-(3-{6-Amino-8-[(2,5-dimethoxyphenyl)thio]-9H-purin-9-yl}-1-cyclopropylpropyl)methanesulfonamide]
550 | Cc1cc(=O)n(CCn2c(Sc3cc4c(cc3Br)OCO4)nc3c(N)ncnc32)c(=O)[nH]1 [Example 578, 3-(2-{6-amino-8-[(6-bromo-1,3-benzodioxol-5-yl)thio]-9 H-purin-9-yl}ethyl)-6-methylpyrimidine-2,4 (1 H,3 H)-dione]
170 | COc1ccc(OC)c(Sc2nc3c(N)ncnc3n2CCc2ccsc2)c1 [Example 197, 8-(2,5-Dimethoxy-phenylsulfanyl)-9-(2-thiophen-3-yl-ethyl)-9H-purin-6-ylamine]
> 10000 | COc1ccc(OC)c(Sc2nc3c(N)ncn(CCc4ccccc4Cl)c-3n2)c1 [Example 26, 3-[2-(2-chloro-phenyl)-ethyl]-8-(2,5-dimethoxy-phenylsulfanyl)-3H-purin-6-ylamine]
> 2000 | C[C@@H](C(=O)N1CCC(CCn2c(Sc3cc4c(cc3Br)OCO4)nc3c(N)ncnc32)CC1)N(C)C(=O)OC(C)(C)C [Example 715, tert-Butyl{(1S)-2-[4-(2-{6-amino-8-[(6-bromo-1,3-benzodioxol-5-yl)thio]-9H-purin-9-yl}ethyl)piperidin-1-yl]-1-methyl-2-oxoethyl}methylcarbamate]
> 10000 | COc1ccc(OC)c(Sc2nc3c(N)ncn(CCc4cccc(F)c4)c-3n2)c1 [Example 38, 8-(2,5-dimethoxy-phenylsulfanyl)-3-[2-(3-fluoro-phenyl)-ethyl]-3H-purin-6-ylamine]
4800 | COc1ccc(OC)c(Sc2nc3c(N)ncnc3n2CCC(NC(=O)OC(C)(C)C)C2CCSCC2)c1 (centres unmarked) [Example 668, tert-Butyl[3-{6-amino-8-[(2,5-dimethoxyphenyl)thio]-9H-purin-9-yl}-1-(tetrahydro-2H-thiopyran-4-yl)propyl]carbamate]
250 | COc1cc(Sc2nc3c(N)ncnc3n2CCc2c(Cl)cccc2Cl)c(OC)cc1Cl [Example 255, 8-[(4-Chloro-2,5-dimethoxyphenyl)thio]-9-[2-(2,6-dichlorophenyl)ethyl]-9H-purin-6-amine]
700 | COc1ccc(OC)c(Sc2nc3c(N)ncnc3n2CCC2CCCCN2S(C)(=O)=O)c1 (centres unmarked) [Example 371, 8-[(2,5-Dimethoxyphenyl)thio]-9-{2-[1-(methylsulfonyl)piperidin-2-yl]ethyl}-9H-purin-6-amine]
1800 | C[C@H](O)C(=O)N1CCC(CCn2c(Sc3nc4cccc(Cl)c4s3)nc3c(N)ncnc32)CC1 [Example 775, (2S)-1-[4-(2-{6-Amino-8-[(7-chloro-1,3-benzothiazol-2-yl)thio]-9H-purin-9-yl}ethyl)piperidin-1-yl]-1-oxopropan-2-ol]
300 | Nc1ncnc2c1nc(Sc1cc3c(cc1Br)OCO3)n2CCC1CCN(C=O)CC1 [Example 363, 4-(2-{6-Amino-8-[(6-bromo-1,3-benzodioxol-5-yl)thio]-9H-purin-9-yl}ethyl)piperidine-1-carbaldehyde]

SMILES | IC50 [nM]
CN1[C@@H]2CC[C@H]1C[C@@H](CCn1c(Sc3cc4c(cc3Br)OCO4)nc3c(N)ncnc31)C2 [Example 426, 8-[(6-Bromo-1,3-benzodioxol-5-yl)thio]-9-{2-[(3-endo)-8-methyl-8-azabicyclo[3.2.1]oct-3-yl]ethyl}-9H-purin-6-amine] | 150
